Entries after “also recorded” stand apart in the source; their conditions may differ.
Legend:
[1] = tested on: human peripheral blood mononuclear cells (PBMC); test: Cytotoxicity on normal PBMC (quiescent or PHA-activated); assay type: cell-based; conditions: up to 10 μM, 24 h
Experimental: U-937 (human myeloid leukaemia) cells from DSMZ (German Collection of Microorganisms and Cell Cultures, Braunschweig, Germany) and U-937 cells overexpressing human Bcl-2 protein (designated U-937/Bcl-2, donated by Dr Jacqueline Bréard, INSERM U749, Faculté de Pharmacie Paris-Sud., Châtenay-Malabry, France) were cultured in RPMI-1640 medium containing 10% (v/v) heat-inactivated foetal bovine serum, 100 μg/mL streptomycin and 100 U/mL penicillin, incubated at 37 °C in a humidified atmosphere containing 5% CO2 as described. The functioning of U-937/Bcl-2 cells was tested using the cytotoxic agent 1-β-D-arabino-furanosylcytosine as previously described. Human peripheral blood mononuclear cells (PBMC) were isolated from heparin-anticoagulated blood of healthy volunteers by centrifugation with Ficoll-Paque Plus (GE Healthcare Bio-Sciences AB, Uppsala, Sweden). PBMC were also stimulated with phytohemagglutinin (2 μg/mL) for 48 h before the experimental treatment. The trypan blue dye exclusion method was used for counting the living/dead cells by a hematocytometer with 95% viability in all experiments. The cytotoxicity of compounds was evaluated by the colorimetric 3-(4,5-dimethyl-2-thiazolyl-)-2,5-diphenyl-2H-tetrazolium bromide (MTT) assay as previously described. […] After the addition of MTT (0.5 mg/mL), cells were incubated at 37 °C for 4 h. Sodium dodecyl sulphate (10% w/v) in 0.05 M HCl was added to the wells and then incubated at room temperature overnight in the dark. Absorbance was measured at 570 nm. […] Values are mean ± SE from at least three independent experiments, each performed in triplicate. Compounds were dissolved in DMSO and kept in the dark at 25 °C.

[2] = tested on: tubulin (colchicine site); test: Inhibition of [3H]colchicine binding to tubulin; set-up: species or system bovine; conditions: tubulin 1 µM, [3H]colchicine 5 µM, compound 5 µM
Experimental: (§1) To evaluate the effect of the compounds on tubulin assembly in vitro[40], varying concentrations of compounds were preincubated with 10 μM bovine brain tubulin in 0.8M monosodium glutamate (pH adjusted to 6.6 with HCl in a 2.0M stock solution) at 30 °C and then cooled to 0 °C. After addition of 0.4 mM GTP, the mixtures were transferred to 0 °C cuvettes in a recording spectrophotometer and warmed to 30 °C. Tubulin assembly was followed turbidimetrically at 350 nm. […] The capacity of the test compounds to inhibit colchicine binding to tubulin was measured as described. The reaction mixtures contained 1 μM tubulin, 5 μM [^3H]colchicine and 5 μM test compound.

bovine brain tubulin = test: Inhibition of tubulin polymerisation (turbidimetric tubulin assembly); assay type: biochemical; conditions: tubulin 10 µM, 20 min at 30 °C; read-out: Tubulin assembly IC50±SD
Experimental: as §1

U-937 cells = test: Cell cycle phase distribution and apoptosis, flow cytometry (propidium iodide) and fluorescence microscopy, U-937; assay type: cell-based, human
Experimental: (§2) Fluorescent microscopy and flow cytometric analysis of propidium iodide-stained cells were performed as described. Briefly, cells were harvested and fixed in 3% paraformaldehyde and incubated at room temperature for 10 min. The fixative was removed, and the cells were washed with PBS, resuspended in 30–50 μL of PBS containing 20 μg/mL bis-benzimide trihydrochloride (Hoechst 33258) and incubated at room temperature for 15 min. Stained nuclei were visualized using a Zeiss fluorescence microscope.
(§3) Flow cytometric analysis was carried out using a BD FACSVerse™ cytometer (BD Biosciences, San Jose, CA, USA).

U-937/Bcl-2 cells = test: Cell cycle phase distribution and apoptosis, flow cytometry (propidium iodide) and fluorescence microscopy, U-937/Bcl-2; assay type: cell-based, human
Experimental: as §2, §3

[3] = tested on: human promyelocytic leukemia (HL-60) cells; test: Antiproliferative assay, cell counting (Coulter Counter), HL-60; assay type: cell-based; conditions: Homo sapiens; HL-60, 72–96 h; read-out: IC50, inhibition of proliferation
Experimental: Human cervix carcinoma (HeLa), human colon carcinoma (HT29), human breast carcinoma (MCF-7) and human lymphoma (HL-60) cells (3–5 × 10^4 cells) and a serial (five-fold) dilution of the test compounds were added to a 96-well microtiter plate. The cells were incubated for 72–96 h (depending on the tumor cell line) at 37 °C in a humidified 5% CO2 atmosphere. At the end of the incubation period, the cells were counted in a Coulter Counter (Coulter Electronics Ltd, Harpenden Herts, UK). […] The IC50 values represent the average (±standard deviation) of at least two to four independent experiments.

## CCOC(=O)c1[nH]c2cc(OC)ccc2c1/C=C/C(=O)c1cc(OC)c(OC)c(OC)c1 [Compound 9f, (E)-Ethyl 6-methoxy-3-(3-oxo-3-(3,4,5-trimethoxyphenyl)prop-1-en-1-yl)-1H-indole-2-carboxylate]
[1]
  Toxicity to normal PBMC: devoid of significant cytotoxic activity; also recorded: no appreciable toxicity
[2]
  Colchicine binding % ±SD (inhibition): 23 ± 1%
Bovine brain tubulin
  IC50: 17 ± 2 µM
U-937 cells; U-937, 24 h, 3 µM
  % G1: 42.7 ± 0.5%
  % G2-M: 25.2 ± 0.1%
  % S: 24.6 ± 0.8%
  % Sub-G1: 5.9 ± 0.3%
U-937 cells; U-937, 24 h, 10 µM
  % G1: 36.7 ± 1.8 %
  % G2-M: 23.8 ± 0.4%
  % S: 25.5 ± 0.5%
  % Sub-G1: 11.9 ± 1.6 %
U-937 cells; U-937, 48 h, 3 µM
  % G1: 51.0 ± 0.5%
  % G2-M: 19.2 ± 0.5%
  % S: 24.0 ± 0.3%
  % Sub-G1: 5.1 ± 0.1%
U-937 cells; U-937, 48 h, 10 µM
  % G1: 47.1 ± 1.1 %
  % G2-M: 18.2 ± 0.1%
  % S: 23.4 ± 0.3%
  % Sub-G1: 10.1 ± 0.6 %
U-937 cells; U-937, 72 h, 3 µM
  % G1: 53.1 ± 2.0%
  % G2-M: 16.5 ± 0.6%
  % S: 22.3 ± 1.4%
  % Sub-G1: 6.4 ± 0.6%
U-937 cells; U-937, 72 h, 10 µM
  % G1: 43.3 ± 1.7%
  % G2-M: 15.0 ± 0.6%
  % S: 21.2 ± 1.2%
  % Sub-G1: 19.0 ± 3.3 %
U-937/Bcl-2 cells; U-937/Bcl-2, 24 h, 0.3 µM
  % G1: 26.0 ± 0.9 %
  % G2-M: 41.1 ± 0.4 %
  % S: 25.2 ± 0.3%
  % Sub-G1: 6.2 ± 0.9%
U-937/Bcl-2 cells; U-937/Bcl-2, 24 h, 1 µM
  % G1: 17.6 ± 0.6 %
  % G2-M: 41.0 ± 2.3 %
  % S: 18.1 ± 0.1 %
  % Sub-G1: 20.6 ± 1.6 %
U-937/Bcl-2 cells; U-937/Bcl-2, 48 h, 0.3 µM
  % G1: 27.4 ± 0.8 %
  % G2-M: 31.6 ± 0.3 %
  % S: 26.3 ± 0.4%
  % Sub-G1: 11.1 ± 0.1 %
U-937/Bcl-2 cells; U-937/Bcl-2, 48 h, 1 µM
  % G1: 16.0 ± 0.0 %
  % G2-M: 28.4 ± 1.8 %
  % S: 16.5 ± 1.0 %
  % Sub-G1: 30.2 ± 3.3 %
U-937/Bcl-2 cells; U-937/Bcl-2, 72 h, 0.3 µM
  % G1: 30.3 ± 2.9 %
  % G2-M: 29.4 ± 2.0 %
  % S: 23.8 ± 0.7%
  % Sub-G1: 11.8 ± 0.5 %
U-937/Bcl-2 cells; U-937/Bcl-2, 72 h, 1 µM
  % G1: 14.0 ± 0.6 %
  % G2-M: 22.7 ± 0.2%
  % S: 17.1 ± 1.4%
  % Sub-G1: 37.7 ± 1.5 %
[3]
  IC50: 5.2 ± 2.2 µM

— paper PMC6116705, “Design, synthesis, in vitro antiproliferative activity and apoptosis-inducing studies of 1-(3′,4′,5′-trimethoxyphenyl)-3-(2′-alkoxycarbonylindolyl)-2-propen-1-one derivatives obtained by a molecular hybridisation approach” (Journal of Enzyme Inhibition and Medicinal Chemistry, 2018)
